Reference: PMC2363502
Several values for one entry are separate records, joined by “and”; a condition that tells them apart may be missing. Identical values can stand only once.

Tests used:
[1] = phase I safety and tolerability, 120 h continuous infusion every 4 weeks
[2] = test system: human HCT-116 tumour cell line; design: method as in data on file; settings: subcutaneous HCT-116 in nude mice; ref data on file; cited from earlier work
[3] = Table 4, after infusion (day 6-28), 700 mg m-2 cycle-1, 5 patients studied
[4] = Table 4, after infusion (day 6-28), all dose levels, 39 patients
[5] = Table 4, after infusion (days 6-28), 3 mg m-2 cycle-1, 3 patients studied
[6] = Table 4, after infusion (days 6-28), 6 mg m-2 cycle-1, 4 patients studied
[7] = Table 4, after infusion (days 6-28), 24 mg m-2 cycle-1, 3 patients studied
[8] = Table 4, after infusion (days 6-28), 96 mg m-2 cycle-1, 3 patients studied
[9] = Table 4, after infusion (days 6-28), 400 mg m-2 cycle-1, 6 patients studied
[10] = Table 4, after infusion (days 6-28), 550 mg m-2 cycle-1, 6 patients studied
[11] = Table 4, after infusion (days 6-28), 700 mg m-2 cycle-1, 5 patients studied
[12] = Table 4, after infusion (days 6-28), all dose levels, 39 patients
[13] = Table 4, during infusion (day 1-5), 700 mg m-2 cycle-1, 5 patients studied
[14] = Table 4, during infusion (day 1-5), all dose levels, 39 patients

## N=C(N)c1cccc2c1CCC2=NN=C(N)N [SAM486A]
[1]; [3]
  Dyspnea grade 3-4, no. of patients: 1 patients
  Fatigue grade 3-4, no. of patients: 1 patients
  Somnolence grade 3-4, no. of patients: 1 patients
  Vesicular rash grade 3-4, no. of patients: 1 patients
[1]; [4]
  Anorexia grade 3-4, Total (%): 1 (3) patients (%)
  Atrial fibrillation grade 3-4, Total (%): 1 (3) patients (%)
  Condition aggravated grade 3-4, Total (%): 1 (3) patients (%)
  Dementia grade 3-4, Total (%): 1 (3) patients (%)
  Dyspnea grade 3-4, Total (%): 1 (3) patients (%)
  Fatigue grade 3-4, Total (%): 2 (5) patients (%)
  Somnolence grade 3-4, Total (%): 1 (3) patients (%)
  Vesicular rash grade 3-4, Total (%): 1 (3) patients (%)
[1]; Table 4, after infusion (day 6-28), all dose levels, 39 patients, incl. combination
  Mucositis nos grade 3-4, Total (%): 1 (3) patients (%)
[1]; [5]
  Anorexia grade 1-4, no. of patients: 1 patients
  Fatigue grade 1-4, no. of patients: 1 patients
[1]; [6]
  Fatigue grade 1-4, no. of patients: 1 patients
  Nausea grade 1-4, no. of patients: 1 patients
[1]; Table 4, after infusion (days 6-28), 12 mg m-2 cycle-1, 3 patients studied
  Fatigue grade 1-4, no. of patients: 1 patients
[1]; [7]
  Fatigue grade 1-4, no. of patients: 1 patients
  Nausea grade 1-4, no. of patients: 1 patients
  Vomiting grade 1-4, no. of patients: 1 patients
[1]; [8]
  Nausea grade 1-4, no. of patients: 1 patients
  Vomiting grade 1-4, no. of patients: 1 patients
[1]; [9]
  Anorexia grade 1-4, no. of patients: 3 patients
  Fatigue grade 1-4, no. of patients: 2 patients
  Nausea grade 1-4, no. of patients: 1 patients
[1]; [10]
  Anorexia grade 1-4, no. of patients: 1 patients
  Fatigue grade 1-4, no. of patients: 2 patients
  Nausea grade 1-4, no. of patients: 3 patients
  Vomiting grade 1-4, no. of patients: 3 patients
[1]; [11]
  Fatigue grade 1-4, no. of patients: 2 patients
  Nausea grade 1-4, no. of patients: 2 patients
  Vomiting grade 1-4, no. of patients: 3 patients
[1]; [12]
  Anorexia grade 1-4, Total (%): 5 (13) patients (%)
  Fatigue grade 1-4, Total (%): 10 (26) patients (%)
  Vomiting grade 1-4, Total (%): 8 (21) patients (%)
[1]; Table 4, after infusion (days 6-28), all dose levels, 39 patients, incl. combination
  Nausea grade 1-4, Total (%): 10 (26) patients (%)
[1]; Table 4, during infusion (day 1-5), 550 mg m-2 cycle-1, 6 patients studied
  Asthenia grade 3-4, no. of patients: 1 patients
[1]; [13]
  Condition aggravated grade 3-4, no. of patients: 1 patients
  Vesicular rash grade 3-4, no. of patients: 1 patients
  Vomiting grade 3-4, no. of patients: 1 patients
[1]; [14]
  Asthenia grade 3-4, Total (%): 1 (3) patients (%)
  Condition aggravated grade 3-4, Total (%): 1 (3) patients (%)
  Vesicular rash grade 3-4, Total (%): 1 (3) patients (%)
  Vomiting grade 3-4, Total (%): 1 (3) patients (%)
[1]; Table 4, during infusion (days 1-5), 400 mg m-2 cycle-1, 6 patients studied
  Nausea grade 1-4, no. of patients: 1 patients
[1]; Table 4, during infusion (days 1-5), 550 mg m-2 cycle-1, 6 patients studied
  Nausea grade 1-4, no. of patients: 2 patients
[1]; Table 4, during infusion (days 1-5), 700 mg m-2 cycle-1, 5 patients studied
  Nausea grade 1-4, no. of patients: 2 patients
[1]; Table 4, during infusion (days 1-5), all dose levels, 39 patients
  Nausea grade 1-4, Total (%): 5 (13) patients (%)
[1]; after infusion, any causality
  mild to moderate nausea and vomiting, incidence: 31%
[1]; after the infusion, any causality
  fatigue, incidence in all patients: 51%
[1]; all patients
  anorexia considered related to SAM486A, incidence: 13%
  fatigue considered related to SAM486A, incidence: 26%
  nausea considered related to SAM486A, incidence: 26%
  vomiting considered related to SAM486A, incidence: 21%
[1]; during infusion, any causality
  mild to moderate nausea and vomiting, incidence: 15%
[1]; in vivo
  changes in electrolytes, renal function, LVEF: no significant drug-related changes
  correlation coefficient Cmax vs granulocytopenia: 0.6794
  dose with reversible dose-limiting neutropenia: 550 mg m^–2cycle^–1 and 700 mg m^–2cycle^–1
  fever associated with granulocytopenia: three
  median day of granulocyte nadir: 21 day of the cycle
  patients with grade 4 granulocytopenia: three out of five
  patients with some worsening in performance status: eight of the 11
  recommended dose for phase II studies: 400 and 400 mg m-2 cycle-1
[1]; without growth factors
  time to spontaneous recovery from granulocyte nadir: ≤ 1 week
[2]
  drug level in tumours compared to plasma elimination profile: marked accumulation of the drug was seen in tumours
